# From ChEMBL document CHEMBL4814023, “The dual inhibition against the activity and expression of tyrosine phosphatase PRL-3 from a rhodanine derivative” (Bioorg Med Chem Lett, 2021)
# The source made the active and inactive calls. No cut-off for these calls is given here.
# Assays:
# HCT-116 [1] = assay: cells; conditions: Homo sapiens
# SW480 [2] = assay: cells; conditions: Homo sapiens
# SW480 [3] = assay: Antiproliferative activity against human SW480 cells assessed as reduction in cell viability at 1 to 100 uM incubated for 24 to 72 hrs by MTT assay; format: functional, cell-based; conditions: dose 1-100 µM, time 24-72 hrs
# HCT-116 [4] = assay: Antiproliferative activity against human HCT116 cells assessed as reduction in cell viability at 1 to 100 uM incubated for 24 to 72 hrs by MTT assay; format: functional, cell-based; conditions: dose 1-100 µM, time 24-72 hrs
# SW480 [5] = assay: Antiproliferative activity against human SW480 cells assessed as reduction in cell viability incubated for 24 to 72 hrs by MTT assay; conditions: dose 1-100 µM, time 24-72 hrs
# SW480 [6] = assay: Induction of apoptosis in human SW480 cells assessed as early apoptotic cells at 50 uM incubated for 24 hrs by Annexin V-FITC/propidium iodide staining based flow cytometry analysis (reference value: 0.52%); format: functional
# SW480 [7] = assay: Induction of apoptosis in human SW480 cells assessed as early apoptotic cells at 5 uM incubated for 24 hrs by Annexin V-FITC/propidium iodide staining based flow cytometry analysis (reference value: 0.52%); format: functional
# SW480 [8] = assay: Induction of apoptosis in human SW480 cells assessed as decrease in number of cells at 5 to 50 uM after 24 hrs by AO/EB staining based fluorescence inverted microscopic method; format: functional, cell-based; conditions: dose 5-50 µM
# SW480 [9] = assay: Induction of apoptosis in human SW480 cells assessed as early apoptotic cells at 25 uM incubated for 24 hrs by Annexin V-FITC/propidium iodide staining based flow cytometry analysis (reference value: 0.52%); format: functional
# SW480 [10] = assay: Effect on PTP1B expression in human SW480 cells at 5 to 50 uM by Western blot analysis; format: functional, cell-based; conditions: dose 5-50 µM
# SW480 [11] = assay: Induction of apoptosis in human SW480 cells assessed as late apoptotic cells at 25 uM incubated for 24 hrs by Annexin V-FITC/propidium iodide staining based flow cytometry analysis (reference value: 2.58%); format: functional
# SW480 [12] = assay: Down regulation of PRL-3 expression in human SW480 cells by Western blot analysis; format: functional, cell-based; conditions: dose 5-50 µM
# SW480 [13] = assay: Induction of apoptosis in human SW480 cells assessed as increase in number of cells with red dye at 5 to 50 uM after 24 hrs by AO/EB staining based fluorescence inverted microscopic method; format: functional, cell-based; conditions: dose 5-50 µM
# SW480 [14] = assay: Induction of apoptosis in human SW480 cells assessed as late apoptotic cells at 5 uM incubated for 24 hrs by Annexin V-FITC/propidium iodide staining based flow cytometry analysis (reference value: 2.58%); format: functional
# SW480 [15] = assay: Effect on SHP-2 expression in human SW480 cells at 5 to 50 uM by Western blot analysis; format: functional, cell-based; conditions: dose 5-50 µM
# SW480 [16] = assay: Effect on SHP-1 expression in human SW480 cells at 5 to 50 uM by Western blot analysis; format: functional, cell-based; conditions: dose 5-50 µM
# SW480 [17] = assay: Induction of apoptosis in human SW480 cells assessed as late apoptotic cells at 10 uM incubated for 24 hrs by Annexin V-FITC/propidium iodide staining based flow cytometry analysis (reference value: 2.58%); format: functional
# SW480 [18] = assay: Induction of apoptosis in human SW480 cells assessed as late apoptotic cells at 50 uM incubated for 24 hrs by Annexin V-FITC/propidium iodide staining based flow cytometry analysis (reference value: 2.58%); format: functional
# SW480 [19] = assay: Induction of apoptosis in human SW480 cells assessed as early apoptotic cells at 10 uM incubated for 24 hrs by Annexin V-FITC/propidium iodide staining based flow cytometry analysis (reference value: 0.52%); format: functional
# SW480 [20] = assay: Induction of apoptosis in human SW480 cells assessed as change in cell shape at 5 to 50 uM after 24 hrs by AO/EB staining based fluorescence inverted microscopic method; format: functional; conditions: dose 5-50 µM
# SW480 [21] = assay: Antiproliferative activity against human SW480 cells assessed as reduction in cell viability at 1 to 100 uM by MTT assay; format: functional, cell-based; conditions: dose 1-100 µM, time 24-72 hrs, TDE = time-dependent effect
# SW480 [22] = assay: Effect on TCPTP expression in human SW480 cells at 5 to 50 uM by Western blot analysis; format: functional, cell-based; conditions: dose 5-50 µM
# [23] = target: T1, Protein tyrosine phosphatase type IVA 3 (Homo sapiens, UniProt O75365); assay: Inhibition of human brain PRL-3 (1 to 168 residues) expressed in Escherichia coli BL21(DE3) cells using DiFMUP as substrate incubated for 1 hr by fluorimetric assay
# T1 sequence (O75365 whole entry, the tested form may be a part): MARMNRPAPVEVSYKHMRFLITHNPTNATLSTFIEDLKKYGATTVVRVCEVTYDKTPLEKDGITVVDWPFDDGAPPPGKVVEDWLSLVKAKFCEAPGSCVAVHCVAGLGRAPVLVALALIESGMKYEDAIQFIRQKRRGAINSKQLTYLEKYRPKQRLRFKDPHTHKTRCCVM
# [24] = target: T1, Protein tyrosine phosphatase type IVA 3; assay: Inhibition of PRL-3 (unknown origin) using DiFMUP as substrate incubated for 1 hr
SMILES,IC50 (HCT-116 [1]) [µM],IC50 (SW480 [2]) [µM],Activity (SW480 [3]),Activity (HCT-116 [4]),further results
COc1cc(O)c2c(=O)cc(-c3ccc(OC)c(-c4c(O)cc(O)c5c(=O)cc(-c6ccc(O)cc6)oc45)c3)oc2c1 [GINKGETIN],,,,,IC50 [23]: 25.8 µM
Cn1ccnc1/C=C1\SC(=S)NC1=O,> 100,78.7,inactive,inactive,
N#Cc1cc(/C=C2\SC(=S)NC2=O)ccc1F,> 100,31.4,inactive,inactive,
COc1ccc(-c2cc(=O)c3c(O)cc(O)c(-c4cc(-c5cc(=O)c6c(O)cc(OC)cc6o5)ccc4OC)c3o2)cc1 [SCIADOPITISIN],,,,,IC50 [23]: 46.2 µM

# Further lines, with some results ahead:
IC50 (HCT-116 [1]) [µM],IC50 (SW480 [2]) [µM],SMILES,Activity (SW480 [3]),Activity (HCT-116 [4]),further results
16.9,86.1,O=C1NC(=S)S/C1=C\c1c(F)cc(F)cc1F,inactive,inactive,
100,> 100,O=C1NC(=S)S/C1=C\c1ccc(O)c(C(=O)O)c1,inactive,inactive,
74.8,6.64,O=C1NC(=S)S/C1=C\c1cc(Cl)ccc1C(F)(F)F,,,Activity (SW480 [5]): Dose-Dependent Effect; Activity (SW480 [6]): 4.77%; Activity (SW480 [7]): 0.92%; Activity (SW480 [8]): Active; Activity (SW480 [9]): 2.9%; Activity (SW480 [10]): inactive; Activity (SW480 [11]): 6.23%; Activity (SW480 [12]): Dose-Dependent Effect; Activity (SW480 [13]): Active; Activity (SW480 [14]): 4.13%; Activity (SW480 [15]): inactive; Activity (SW480 [16]): inactive; Activity (SW480 [17]): 5.91%; Activity (SW480 [18]): 11.72%; Activity (SW480 [19]): 1.47%; Activity (SW480 [20]): Active; Activity (SW480 [21]): Tde; Activity (SW480 [22]): inactive
16.9,66.7,O=C1NC(=S)S/C1=C\c1cc(Cl)ccc1Cl,inactive,inactive,IC50 [24]: 26 µM
